BindingDB's records for doi:10.1021/jm980537b (Agouron Pharmaceuticals, 1999)

Experiments:
[1] = Increased percentage of formazan production in drug treated virus infected cells to equal 50% of control drug free uninfected cells on serotype 14
[2] = The EC50 was calculated as the concentration of drug that increased the percentage of formazan production in drug treated, virus infected cells to 50% of that produced by drug free uninfected cells on serotype 1A.
[3] = The EC50 was calculated as the concentration of drug that increased the percentage of formazan production in drug treated,virus infected cells to 50% of that produced by drug free uninfected cells on serotype 10.
[4] = The EC50 was calculated as the concentration of drug that increased the percentage of formazan production in drug treated, virus infected cells to 50% of that produced by drug free uninfected cells on serotype 2.
[5] = The EC50 was calculated as the concentration of drug that increased the percentage of formazan production in drug treated, virus infected cells to 50% of that produced by drug free uninfected cells on serotype 1A.; remark: listed apart in the source

EC50 [1] [nM]	EC50 [2] [nM]	EC50 [3] [nM]	EC50 [4] [nM]	EC50 [5] [nM]	Structure (SMILES)
190					CCOC(=O)/C=C/[C@H](CCC(N)=O)NC(=O)[C@@H](CC(=O)[C@H](CC(C)C)NC(=O)SC1CCCC1)Cc1ccccc1 [(E)-(S)-4-((2R,5S)-2-Benzyl-5-cyclopentylsulfanylcarbonylamino-7-methyl-4-oxo-octanoylamino)-6-carbamoyl-hex-2-enoic acid ethyl ester]
680					CCOC(=O)/C=C/[C@H](CCC(N)=O)NC(=O)[C@@H](CC(=O)[C@H](CC(C)C)NC(=O)SCc1ccccc1)Cc1ccccc1 [(E)-(S)-4-((2R,5S)-2-Benzyl-5-benzylsulfanylcarbonylamino-7-methyl-4-oxo-octanoylamino)-6-carbamoyl-hex-2-enoic acid ethyl ester]
50	430				CCOC(=O)/C=C/[C@H](CCC(N)=O)NC(=O)[C@@H](CC(=O)[C@@H](NC(=O)SC1CCCC1)C(C)(C)C)Cc1ccccc1 [(E)-(S)-4-((2R,5S)-2-Benzyl-5-cyclopentylsulfanylcarbonylamino-6,6-dimethyl-4-oxo-heptanoylamino)-6-carbamoyl-hex-2-enoic acid ethyl ester]
190					CCOC(=O)/C=C/[C@H](CCC(N)=O)NC(=O)[C@@H](CC(=O)[C@@H](NC(=O)SCc1ccccc1)C(C)C)Cc1ccccc1 [(E)-(S)-4-((2R,5S)-2-Benzyl-5-benzylsulfanylcarbonylamino-6-methyl-4-oxo-heptanoylamino)-6-carbamoyl-hex-2-enoic acid ethyl ester]
360					CCOC(=O)/C=C/[C@H](CCC(N)=O)NC(=O)[C@@H](CC(=O)[C@H](CC(C)C)NC(=O)OCc1ccccc1)Cc1ccccc1 [(E)-(S)-4-((2R,5S)-2-Benzyl-5-benzyloxycarbonylamino-7-methyl-4-oxo-octanoylamino)-6-carbamoyl-hex-2-enoic acid ethyl ester]
50		160			CCOC(=O)/C=C/[C@H](CCC(N)=O)NC(=O)[C@@H](CC(=O)[C@@H](NC(=O)SC1CCCC1)C(C)C)Cc1ccc(C(F)(F)F)cc1 [(E)-(S)-6-Carbamoyl-4-[(2R,5S)-5-cyclopentylsulfanylcarbonylamino-6-methyl-4-oxo-2-(4-trifluoromethyl-benzyl)-heptanoylamino]-hex-2-enoic acid ethyl ester]
20		35	100		CCOC(=O)/C=C/[C@H](CCC(N)=O)NC(=O)[C@@H](CC(=O)[C@@H](NC(=O)SC1CCCC1)C(C)C)Cc1ccccc1 [(E)-(S)-4-((2R,5S)-2-Benzyl-5-cyclopentylsulfanylcarbonylamino-6-methyl-4-oxo-heptanoylamino)-6-carbamoyl-hex-2-enoic acid ethyl ester]
280	600	1600	710		CCOC(=O)/C=C/[C@H](CCC(N)=O)NC(=O)[C@@H](CC(=O)[C@H](CC(C)C)NC(=O)SC1CCCC1)Cc1ccc(F)cc1 [(E)-(S)-6-Carbamoyl-4-[(2R,5S)-5-cyclopentylsulfanylcarbonylamino-2-(4-fluoro-benzyl)-7-methyl-4-oxo-octanoylamino]-hex-2-enoic acid ethyl ester]
20	170				CCOC(=O)/C=C/[C@H](CCC(N)=O)NC(=O)[C@@H](CC(=O)[C@@H](NC(=O)SC1CCCC1)C(C)C)Cc1ccc(F)cc1 [(E)-(S)-6-Carbamoyl-4-[(2R,5S)-5-cyclopentylsulfanylcarbonylamino-2-(4-fluoro-benzyl)-6-methyl-4-oxo-heptanoylamino]-hex-2-enoic acid ethyl ester]
6	160	60	130		CCOC(=O)/C=C/[C@H](CCC(N)=O)NC(=O)[C@@H](CC(=O)[C@@H](NC(=O)SC1CCCC1)C(C)C)Cc1ccc(C)cc1 [(E)-(S)-6-Carbamoyl-4-[(2R,5S)-5-cyclopentylsulfanylcarbonylamino-6-methyl-2-(4-methyl-benzyl)-4-oxo-heptanoylamino]-hex-2-enoic acid ethyl ester]
		1400	1000	560	CCOC(=O)/C=C/[C@H](CCC(N)=O)NC(=O)[C@@H](CC(=O)[C@H](CC(C)C)NC(=O)SC1CCCC1)Cc1ccc(C)cc1 [(E)-(S)-6-Carbamoyl-4-[(2R,5S)-5-cyclopentylsulfanylcarbonylamino-7-methyl-2-(4-methyl-benzyl)-4-oxo-octanoylamino]-hex-2-enoic acid ethyl ester]
